Results published in article PMC6218659, “Structures of DPAGT1 Explain Glycosylation Disease Mechanisms and Advance TB Antibiotic Design” (Cell, 2018).

Legend:
DPAGT1 Arg301Cys = target: T1, DPAGT1 Arg301Cys (Homo sapiens, UniProt Q9H3H5, R301C); test: Thermostability assay (label free differential scanning fluorimetry); format: binding, H. sapiens; settings: 50 μM compound
T1 construct: combined with the LIC-adapted primers to amplify the complete DPAGT1 gene, including the desired mutations; 6xHis purification tag with TEV site (N, cleaved yes); made in house; host or cells: Spodoptera frugiperda Sf9 insect cells (baculovirus)
T1 sequence (Q9H3H5 1-408 R301C): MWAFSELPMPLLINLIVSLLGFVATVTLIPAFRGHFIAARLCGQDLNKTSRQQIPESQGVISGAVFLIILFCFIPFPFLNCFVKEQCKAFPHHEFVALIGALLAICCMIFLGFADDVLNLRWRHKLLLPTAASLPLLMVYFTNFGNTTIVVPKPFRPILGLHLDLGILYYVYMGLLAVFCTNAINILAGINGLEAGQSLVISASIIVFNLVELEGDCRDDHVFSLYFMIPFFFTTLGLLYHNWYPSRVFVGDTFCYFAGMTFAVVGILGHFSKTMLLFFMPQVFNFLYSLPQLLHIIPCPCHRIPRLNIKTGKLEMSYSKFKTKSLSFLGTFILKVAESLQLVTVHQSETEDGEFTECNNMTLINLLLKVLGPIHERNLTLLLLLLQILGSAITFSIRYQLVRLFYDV
Method: (§1) Samples with a volume of 40 μl were prepared containing 0.5 mg/ml protein and 50 μM compound or 5% DMSO in GFB. A glass capillary was dipped into each sample, with the capillary held horizontally to ensure that the capillary was full of the sample. The capillaries were placed on the capillary holder on the Nanotemper Prometheus. Technical triplicates of each sample were prepared, and each experiment was conducted with biological triplicates of each protein. PR.ThermControl software was used to run the experiment and analyse the data. A melting curve from 20 °C – 95 °C at 5 °C/min was performed. The minimum of the first derivative of the 330/350nm ratio was used to determine the Tm1/2.

DPAGT1 Arg301His = target: T2, DPAGT1 Arg301His (Homo sapiens, UniProt Q9H3H5, R301H); test: as above; format: binding, H. sapiens; settings: 50 μM compound
T2 construct: combined with the LIC-adapted primers to amplify the complete DPAGT1 gene, including the desired mutations; 6xHis purification tag with TEV site (N, cleaved yes); made in house; host or cells: Spodoptera frugiperda Sf9 insect cells (baculovirus)
T2 sequence (Q9H3H5 1-408 R301H): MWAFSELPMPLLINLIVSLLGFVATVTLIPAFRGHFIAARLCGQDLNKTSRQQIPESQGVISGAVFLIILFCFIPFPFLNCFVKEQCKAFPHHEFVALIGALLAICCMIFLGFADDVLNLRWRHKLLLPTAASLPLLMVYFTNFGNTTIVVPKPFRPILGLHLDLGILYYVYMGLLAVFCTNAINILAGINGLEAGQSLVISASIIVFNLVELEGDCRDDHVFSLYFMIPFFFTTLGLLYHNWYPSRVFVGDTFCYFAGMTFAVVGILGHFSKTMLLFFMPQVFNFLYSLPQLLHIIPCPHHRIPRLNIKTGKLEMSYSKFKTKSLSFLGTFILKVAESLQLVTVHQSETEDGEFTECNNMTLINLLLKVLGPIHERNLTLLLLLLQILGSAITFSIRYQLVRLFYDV
Method: as §1

DPAGT1 Leu168Pro = target: T3, DPAGT1 Leu168Pro (Homo sapiens, UniProt Q9H3H5, L168P); test: as above; format: binding, H. sapiens; settings: 50 μM compound
T3 construct: combined with the LIC-adapted primers to amplify the complete DPAGT1 gene, including the desired mutations; 6xHis purification tag with TEV site (N, cleaved yes); made in house; host or cells: Spodoptera frugiperda Sf9 insect cells (baculovirus)
T3 sequence (Q9H3H5 1-408 L168P): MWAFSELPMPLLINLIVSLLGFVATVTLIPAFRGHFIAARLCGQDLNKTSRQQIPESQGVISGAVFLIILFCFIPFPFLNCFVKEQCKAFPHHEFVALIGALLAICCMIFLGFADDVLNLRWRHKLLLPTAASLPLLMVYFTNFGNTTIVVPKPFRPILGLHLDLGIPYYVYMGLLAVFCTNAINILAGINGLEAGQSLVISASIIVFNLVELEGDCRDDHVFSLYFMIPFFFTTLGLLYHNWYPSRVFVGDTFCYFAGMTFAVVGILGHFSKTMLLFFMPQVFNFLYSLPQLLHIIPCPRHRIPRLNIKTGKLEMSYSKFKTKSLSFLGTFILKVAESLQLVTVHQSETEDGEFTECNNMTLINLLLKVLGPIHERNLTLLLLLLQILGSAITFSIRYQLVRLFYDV
Method: as §1

DPAGT1 Tyr170Cys = target: T4, DPAGT1 Tyr170Cys (Homo sapiens, UniProt Q9H3H5, Y170C); test: as above; format: binding, H. sapiens; settings: 50 μM compound
T4 construct: combined with the LIC-adapted primers to amplify the complete DPAGT1 gene, including the desired mutations; 6xHis purification tag with TEV site (N, cleaved yes); made in house; host or cells: Spodoptera frugiperda Sf9 insect cells (baculovirus)
T4 sequence (Q9H3H5 1-408 Y170C): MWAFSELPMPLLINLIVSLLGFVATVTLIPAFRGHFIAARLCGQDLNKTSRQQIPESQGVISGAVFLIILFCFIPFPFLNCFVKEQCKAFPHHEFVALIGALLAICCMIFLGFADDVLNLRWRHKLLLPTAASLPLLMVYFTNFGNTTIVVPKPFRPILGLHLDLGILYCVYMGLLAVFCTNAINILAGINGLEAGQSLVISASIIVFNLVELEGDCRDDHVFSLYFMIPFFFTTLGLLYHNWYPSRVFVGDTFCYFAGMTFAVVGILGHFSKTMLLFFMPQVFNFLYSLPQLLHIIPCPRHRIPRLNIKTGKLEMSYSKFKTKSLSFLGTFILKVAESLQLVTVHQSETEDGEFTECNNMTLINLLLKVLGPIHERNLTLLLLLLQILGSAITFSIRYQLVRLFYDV
Method: as §1

DPAGT1 Val264Gly = target: T5, DPAGT1 Val264Gly (Homo sapiens, UniProt Q9H3H5, V264G); test: as above; format: binding, H. sapiens; settings: 50 μM compound
T5 construct: H. sapiens DPAGT1 (1-408, Val264Gly, N-terminal 6 x HIS tag, TEV cleavage site); 6xHis purification tag with TEV site (N, cleaved yes); made in house; host or cells: Spodoptera frugiperda Sf9 insect cells (baculovirus)
T5 sequence (Q9H3H5 1-408 V264G): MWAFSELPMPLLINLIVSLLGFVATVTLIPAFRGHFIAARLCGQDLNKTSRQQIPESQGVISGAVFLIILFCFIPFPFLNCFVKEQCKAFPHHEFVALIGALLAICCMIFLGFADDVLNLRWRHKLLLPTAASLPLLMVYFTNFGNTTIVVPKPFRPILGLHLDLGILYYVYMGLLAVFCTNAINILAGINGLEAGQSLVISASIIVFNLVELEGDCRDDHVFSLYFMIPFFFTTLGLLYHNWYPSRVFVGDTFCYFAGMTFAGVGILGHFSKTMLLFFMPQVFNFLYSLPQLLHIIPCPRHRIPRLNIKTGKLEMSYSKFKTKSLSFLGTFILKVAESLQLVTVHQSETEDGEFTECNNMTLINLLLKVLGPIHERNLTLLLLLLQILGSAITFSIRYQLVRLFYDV
Method: as §1

DPAGT1 WT = target: T6, DPAGT1 WT (Homo sapiens, UniProt Q9H3H5); test: as above; format: binding, H. sapiens; settings: 50 μM compound
T6 construct: H. sapiens DPAGT1 (1-408, N-terminal 6 x HIS tag, TEV cleavage site); 6xHis purification tag with TEV site (N, cleaved yes); made in house; host or cells: Spodoptera frugiperda Sf9 insect cells (baculovirus)
T6 sequence (Q9H3H5 1-408): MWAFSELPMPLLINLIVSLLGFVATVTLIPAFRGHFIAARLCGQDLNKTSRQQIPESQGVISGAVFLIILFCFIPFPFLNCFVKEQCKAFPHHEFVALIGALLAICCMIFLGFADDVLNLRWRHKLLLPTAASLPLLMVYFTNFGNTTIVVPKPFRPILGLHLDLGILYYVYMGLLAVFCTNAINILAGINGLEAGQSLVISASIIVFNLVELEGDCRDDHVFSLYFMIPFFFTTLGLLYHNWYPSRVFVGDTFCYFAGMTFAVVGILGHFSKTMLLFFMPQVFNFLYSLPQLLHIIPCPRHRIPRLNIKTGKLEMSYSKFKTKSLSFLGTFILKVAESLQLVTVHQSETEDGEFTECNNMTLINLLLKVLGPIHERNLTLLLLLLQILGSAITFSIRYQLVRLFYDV
Method: as §1

DPAGT1 = target: T7, DPAGT1 (Homo sapiens, UniProt Q9H3H5); test: Radiolabeled substrate enzyme activity assay; format: biochemical, H. sapiens; settings: product inhibition test
T7 construct: H. sapiens DPAGT1 (1-408, N-terminal 6 x HIS tag, TEV cleavage site); 6xHis purification tag with TEV site (N, cleaved yes); made in house; host or cells: Spodoptera frugiperda Sf9 insect cells (baculovirus)
T7 sequence (Q9H3H5 1-408): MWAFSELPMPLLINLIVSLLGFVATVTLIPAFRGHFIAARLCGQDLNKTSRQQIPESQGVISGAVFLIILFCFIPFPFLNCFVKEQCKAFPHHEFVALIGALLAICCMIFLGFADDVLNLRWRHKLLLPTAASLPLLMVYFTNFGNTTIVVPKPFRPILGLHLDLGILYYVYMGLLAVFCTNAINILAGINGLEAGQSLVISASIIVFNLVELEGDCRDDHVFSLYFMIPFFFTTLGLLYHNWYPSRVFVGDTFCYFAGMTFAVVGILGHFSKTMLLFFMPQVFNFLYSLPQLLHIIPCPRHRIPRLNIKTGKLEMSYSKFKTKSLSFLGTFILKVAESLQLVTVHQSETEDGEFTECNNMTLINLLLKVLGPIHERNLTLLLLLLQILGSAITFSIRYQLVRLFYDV
Method: 2 μl of 2 μM DPAGT1 WT or mutant proteins in GFB buffer supplemented with 5mM extra MgCl2, 1% OGNG/CHS/cardiolipin and dolichyl monophosphate was combined with 2 μl of UDP-N-acetyl [1-14C] […] The reaction was terminated by the addition of 6 μl of 100% methanol and immediately transferred onto ice. 1 μl of sample was spotted onto a silica coated TLC plate in triplicate and run with a mobile phase consisting of chloroform, methanol, and water at a 65:25:4 ratio respectively. After the run, the TLC plate was dried thoroughly, wrapped in cling film, incubated with a phosphor imaging substrate for 4 days, then phosphor imaged using a Biorad. The pixel density of the spots corresponding to the hydrophobic product was divided by combined pixel density of the product and the substrate and multiplied by the known concentration of substrate added to ascertain the amount of product formed.

| Structure (SMILES) | Thermostability (Tm1/2) with added compound (DPAGT1 Arg301Cys) | Thermostability (Tm1/2) with added compound (DPAGT1 Arg301His) | Thermostability (Tm1/2) with added compound (DPAGT1 Leu168Pro) | Thermostability (Tm1/2) with added compound (DPAGT1 Tyr170Cys) | Thermostability (Tm1/2) with added compound (DPAGT1 Val264Gly) | Thermostability (Tm1/2) with added compound (DPAGT1 WT) | effect of adding product on DPAGT1 activity (DPAGT1) |
| --- | --- | --- | --- | --- | --- | --- | --- |
| CC(=O)NC1C(OP(=O)(O)OP(=O)(O)OCC2OC(n3ccc(=O)[nH]c3=O)C(O)C2O)OC(CO)C(O)C1O (stereo not shown) [UDP-GlcNAc, UDP-N-acetyl glucosamine] | 52.5±0.6 °C | 52.4±1.0 °C | 53.8±1.1 °C | 54.0±0.8 °C | 54.6±0.4 °C | 55.1±0.4 °C | – |
| O=c1ccn([C@@H]2O[C@H](COP(=O)(O)O)[C@@H](O)[C@H]2O)c(=O)[nH]1 [UMP] | 51.4±0.8 °C | 51.4±0.9 °C | 50.4±0.6 °C | 50.7±0.3 °C | 50.5±0.2 °C | 51.7±0.2 °C | no effect |
